In brackets after ≈: the same amount, converted by molar mass. Activity calls are given as the source filed them. The calls are words filed in the database; no cut-off is given here.
Columns and labels:
KB = assay: Cytotoxicity against human KB cells; format: functional, cell-based
[1] = tested on: Trichophyton mentagrophytes; assay: Antifungal activity against Trichophyton mentagrophytes A-23 at 250 ug/dsik; format: functional, organism-based
Staphylococcus aureus = assay: Antibacterial activity against Staphylococcus aureus ATCC 25923 by disk diffusion assay; format: functional, organism-based
Candida albicans = assay: Antifungal activity against Candida albicans A-26 at 250 ug/dsik; format: functional, organism-based
Saccharomyces cerevisiae = assay: Antifungal activity against Saccharomyces cerevisiae M25 at 250 ug/dsik; format: functional, organism-based

## C=C(CO)C(=O)O[C@H]1C/C(C)=C\CC/C(CO)=C\[C@H]2OC(=O)C(=C)[C@H]12 [ONOPORDOPICRIN]
KB
  EC50: 0.85 mg/L (≈ 2.44 µM)
[1]
  Activity: inactive
Staphylococcus aureus
  Activity: Active
Candida albicans
  Activity: inactive
Saccharomyces cerevisiae
  Activity: inactive

From ChEMBL document CHEMBL1159008, “Isolation, NMR studies, and biological activities of onopordopicrin from Centaurea sonchifolia” (J Nat Prod, 1992)
